According to the supplement of paper PMC10883282:
± gives the standard deviation of the averaged measurements.

Tested on: VA-ES-BJ
Test: relative viability vs DMSO control (72 h) (fraction); higher = more viable cells
Method in brief: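 Serially diluted compound, 2.5 µl from source plates spanning 10 mM to 0.0002 mM, was added 24 h after sarcoma cell lines were seeded in 384-well plates at densities targeting 80–90% confluence. Plates then sat 72 h at 37 °C, 5% CO2, with 0.1% DMSO vehicle and a 5 µM positive control. Relative viability came from ATPLite as percent growth, averaged over up to triplicate wells, and was rescaled with 1 as full and 0 as none.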

| Structure (SMILES) | relative viability (0.00017 µM) | relative viability (0.00051 µM) | relative viability (0.00152 µM) | relative viability (0.00457 µM) | relative viability (0.01372 µM) | relative viability (0.04115 µM) | relative viability (0.1235 µM) | relative viability (0.3704 µM) | relative viability (1.111 µM) | relative viability (3.333 µM) | relative viability (10 µM) | relative viability (2 pM) | relative viability (5 pM) | relative viability (15 pM) | relative viability (50 pM) | relative viability (0.00014 µM) | relative viability (0.00041 µM) | relative viability (0.0012 µM) | relative viability (0.0037 µM) | relative viability (0.011 µM) | relative viability (200 fM) | relative viability (600 fM) |
| --- | --- | --- | --- | --- | --- | --- | --- | --- | --- | --- | --- | --- | --- | --- | --- | --- | --- | --- | --- | --- | --- | --- |
| Nc1cc(C(F)(F)F)c(-c2cc(N3CCOCC3)nc(N3CCOCC3)n2)cn1 [Buparlisib] | 1.01 ± 0.043 | 1 ± 0.053 | 0.999 ± 0.027 | 1.01 ± 0.032 | 0.997 ± 0.035 | 0.983 ± 0.055 | 0.875 ± 0.058 | 0.663 ± 0.018 | 0.316 ± 0.0056 | 0.189 ± 0.0041 | 0.1818 ± 0.0013 | – | – | – | – | – | – | – | – | – | – | – |
| Cc1cnc(Nc2ccc(OCCN3CCCC3)cc2)nc1Nc1cccc(S(=O)(=O)NC(C)(C)C)c1 [Fedratinib] | 1.06 ± 0.042 | 1.08 ± 0.013 | 1.03 ± 0.023 | 1.05 ± 0.021 | 1.04 ± 0.013 | 1 ± 0.037 | 1.02 ± 0.032 | 0.781 ± 0.018 | 0.403 ± 0.019 | 0.152 ± 0.0076 | -0.0115 ± 0.0047 | – | – | – | – | – | – | – | – | – | – | – |
| COc1cc2c(Oc3ccc4[nH]c(C)cc4c3F)ncnc2cc1OCCCN1CCCC1 [Cediranib] | 1.05 ± 0.045 | 1.03 ± 0.055 | 1.04 ± 0.048 | 1.06 ± 0.038 | 1.04 ± 0.029 | 1.07 ± 0.067 | 1.09 ± 0.068 | 1.13 ± 0.065 | 1.15 ± 0.051 | 1.15 ± 0.022 | 1.13 ± 0.01 | – | – | – | – | – | – | – | – | – | – | – |
| CC(=O)Nc1cccc(-n2c(=O)n(C3CC3)c(=O)c3c(Nc4ccc(I)cc4F)n(C)c(=O)c(C)c32)c1 [Trametinib] | 1.08 ± 0.043 | 1.04 ± 0.026 | 1.02 ± 0.034 | 0.961 ± 0.038 | 0.871 ± 0.028 | 0.811 ± 0.032 | 0.738 ± 0.029 | 0.656 ± 0.022 | 0.628 ± 0.018 | 0.604 ± 0.019 | 0.572 ± 0.016 | – | – | – | – | – | – | – | – | – | – | – |
| CC(C)N1CCN(Cc2cnc(-c3cc(-c4cccc5[nH]ccc45)cc4[nH]ncc34)o2)CC1 [Nemiralisib] | 0.985 ± 0.032 | 0.987 ± 0.045 | 0.981 ± 0.047 | 1.01 ± 0.04 | 0.96 ± 0.026 | 0.965 ± 0.041 | 0.982 ± 0.038 | 0.9285 ± 0.0062 | 0.901 ± 0.049 | 0.811 ± 0.017 | 0.655 ± 0.038 | – | – | – | – | – | – | – | – | – | – | – |
| Cc1cc(Nc2ncnc3ccc(NC4=NC(C)(C)CO4)cc23)ccc1Oc1ccn2ncnc2c1 [Tucatinib] | 1.09 ± 0.036 | 1.058 ± 0.0029 | 1.07 ± 0.032 | 1.04 ± 0.015 | 1.02 ± 0.02 | 1.03 ± 0.043 | 1.02 ± 0.089 | 1.01 ± 0.058 | 1.03 ± 0.023 | 1.03 ± 0.049 | 1.01 ± 0.023 | – | – | – | – | – | – | – | – | – | – | – |
| COc1cc2c(cc1O)CCN[C@]21CS[C@@H]2c3c(OC(C)=O)c(C)c4c(c3[C@H](COC1=O)N1[C@@H]2[C@H]2c3c(cc(C)c(OC)c3O)C[C@@H]([C@@H]1O)N2C)OCO4 [Trabectedin] | – | – | – | – | – | – | – | – | – | – | – | 1.096 ± 0.0079 | 1.09 ± 0.014 | 1.07 ± 0.029 | 1.01 ± 0.046 | 0.683 ± 0.012 | 0.389 ± 0.1 | 0.239 ± 0.087 | 0.183 ± 0.014 | 0.203 ± 0.018 | 1.07 ± 0.024 | 1.08 ± 0.032 |
| C[C@@H]1COCCN1c1cc(-c2ccnn2C)c2ccnc(-c3ccn[nH]3)c2n1 | 1.02 ± 0.024 | 1.02 ± 0.03 | 1.01 ± 0.0075 | 1.05 ± 0.018 | 0.97 ± 0.07 | 0.739 ± 0.039 | 0.464 ± 0.038 | 0.212 ± 0.015 | 0.191 ± 0.0065 | 0.19 ± 0.015 | 0.173 ± 0.019 | – | – | – | – | – | – | – | – | – | – | – |
| Cc1cc(C)c(/C=C2\C(=O)Nc3ccccc32)[nH]1 [Semaxanib] | 0.973 ± 0.027 | 0.969 ± 0.045 | 0.969 ± 0.039 | 0.97 ± 0.023 | 0.948 ± 0.016 | 0.914 ± 0.014 | 0.922 ± 0.021 | 0.901 ± 0.048 | 0.889 ± 0.043 | 0.902 ± 0.016 | 0.855 ± 0.078 | – | – | – | – | – | – | – | – | – | – | – |
